Data taken from publication PMC6481345, “A novel anti-melanoma SRC-family kinase inhibitor” (Oncotarget, 2019).

Key:
[1] = system: NCI-60 melanoma cell lines; assay: NCI-60 human tumor cell line screen, melanomas (summary); format: cell-based; details: melanoma cell lines of NCI-60, read-out: IC50, range over cell lines
Method: (§1) We first tested the impact of SAB298 on NCI-60 human tumor cell lines that included eight melanomas (performed by the NCI Development Therapeutics Program).
(§2) SFK-inhibitors were tested on a panel of NCI-60 cell lines (Supplementary Table 1) and 30 melanoma cell lines and NBMEL, i.e., normal human melanocytes isolated from a newborn foreskin (Table 1 and Supplementary Table 2). The Yale melanoma cohort designated YU originated from tumors excised to improve patient quality of life and used with participants’ informed consent according to Health Insurance Portability and Accountability Act (HIPAA) regulations with Human Investigative Committee protocol.
(§3) Supplementary Table 1: Cellular activity of SAB298 in a Panel of NCI-60 cancer cell lines*
(§4) measured protein; and TI is LC50/GI50.
(§5) Supplementary Table 2: Description of Melanoma Cell lines. See Supplementary_Table_2

[2] = system: LOX IMVI melanoma cell line; assay: NCI-60 human tumor cell line screen; format: cell-based
Method: as §1, §2, §3, §4, §5

[3] = system: CCRF-CEM leukemia cell line; assay: NCI-60 human tumor cell line screen; format: cell-based
Method: as §1, §2, §3, §4, §5

[4] = system: MOLT-4 leukemia cell line; assay: NCI-60 human tumor cell line screen; format: cell-based
Method: as §1, §2, §3, §4, §5

[5] = system: MDA-MB-435 melanoma cell line; assay: NCI-60 human tumor cell line screen; format: cell-based
Method: as §1, §2, §3, §4, §5

SR leukemia cell line = assay: NCI-60 human tumor cell line screen; format: cell-based
Method: as §1, §2, §3, §4, §5

HOP-62 NSCLC cell line = assay: NCI-60 human tumor cell line screen; format: cell-based
Method: as §1, §2, §3, §4, §5

[6] = system: SF-268 CNS cancer cell line; assay: NCI-60 human tumor cell line screen; format: cell-based
Method: as §1, §2, §3, §4, §5

[7] = system: KM12 colon cancer cell line; assay: NCI-60 human tumor cell line screen; format: cell-based
Method: as §1, §2, §3, §4, §5

[8] = system: UACC-257 melanoma cell line; assay: NCI-60 human tumor cell line screen; format: cell-based
Method: as §1, §2, §3, §4, §5

[9] = system: SK-MEL-2 melanoma cell line; assay: NCI-60 human tumor cell line screen; format: cell-based
Method: as §1, §2, §3, §4, §5

[10] = system: UACC-62 melanoma cell line; assay: NCI-60 human tumor cell line screen; format: cell-based
Method: as §1, §2, §3, §4, §5

[11] = system: MCF7 breast cancer cell line; assay: NCI-60 human tumor cell line screen; format: cell-based
Method: as §1, §2, §3, §4, §5

[12] = system: SK-MEL-5 melanoma cell line; assay: NCI-60 human tumor cell line screen; format: cell-based
Method: as §1, §2, §3, §4, §5

[13] = system: HCT-116 colon cancer cell line; assay: NCI-60 human tumor cell line screen; format: cell-based
Method: as §1, §2, §3, §4, §5

[14] = system: MALME-3M melanoma cell line; assay: NCI-60 human tumor cell line screen; format: cell-based
Method: as §1, §2, §3, §4, §5

M14 melanoma cell line = assay: NCI-60 human tumor cell line screen; format: cell-based
Method: as §1, §2, §3, §4, §5

NCI-1460 NSCLC cell line = assay: NCI-60 human tumor cell line screen; format: cell-based
Method: as §1, §2, §3, §4, §5

[15] = system: SK-MEL-28 melanoma cell line; assay: NCI-60 human tumor cell line screen; format: cell-based
Method: as §1, §2, §3, §4, §5

YUSIT1 melanoma cells = assay: CellTiter-Glo Luminescent Cell Viability Assay; format: cell-based, human
Method: The melanoma cells were grown in OptiMEM (Invitrogen, Carlsbad, CA) supplemented with 5% fetal calf serum and antibiotics. The normal human melanocytes (NBMEL) were grown in medium supplemented with bFGF, IBMX and dbcAMP [32]. Most of the Yale melanoma cell lines were characterized by next-generation sequencing (Supplementary Table 2).
Cell proliferation was measured with the CellTiter-Glo® Luminescent Cell Viability Assay (Promega Corporation, Madison, WI). Melanoma cells were seeded in 96-well plates in triplicate or quadruplet wells, with increasing concentrations of kinase inhibitors for 72 hrs. The rate of proliferation was also tested after knockdown of different SRC-family kinases (SFK) with hairpin lentivirus shRNA as indicated. […] The statistical significance of synergism of response to drug combinations was evaluated by following Chou and Talalay algorithm. See also details in Supplementary Material.

HCK = molecular target: T1, HCK (Homo sapiens, UniProt P08631); assay: Radioisotope filter activity assay, recombinant kinase; format: biochemical; details: 10 point dose response, 10 µM ATP
T1 construct: purchased Reaction Biology Corporation
Method: (§6) The effect of SAB298 on a panel of 36 recombinant kinases, was screed with the radioisotope filter binding assay employing 10 concentrations of the compound with 10 µM ATP (Reaction Biology Corporation, Malvern, PA). In addition, we tested the endogenous kinome response to SAB298 (0.05 µM, 0.5 µM and 5 µM) in lysates from two melanoma cell lines (YUSIV and YUSIK) employing the KiNativ® platform (ActivX Biosciences Inc., La Jolla, CA). KiNativ® is a robust, high performance mass spectrometry (LC-MS^2) assay that uses biotinylated probes to measure relevant changes in the affinity to the ATP-binding sites of 205 native kinases as a function of cellular context. We also validated SAB298 effect on the activity of SRC-family kinases by probing for phosphorylated Y416, the marker of activated SFKs, with anti-IEDNEpYTAR antibodies (also known as Y419, #2101, Cell Signaling Technology, Beverly, MA). In some cases the cells were incubated overnight with 20 µM proteasome inhibitor MG-132 (CAS 133407-82-6, Millipore Sigma, Burlington, MA) to rescue degradation.
(§7) Supplemntary Table 3: Radioisotope filter activity assay Tests for SAB298 target protein
(§8) *These are results from 10 point dose response test employed with 10 µM ATP. […]
(§9) SRC TRCN0000195339 3ʹUTR […]
(§10) YES TRCN0000001611 CDS […]
(§11) FYN TRCN0000003099 CDS […]
(§12) LY N TRCN0000230901 CDS […]

IGF1R = molecular target: T2, IGF1R (Homo sapiens, UniProt P08069); assay: as above; format: biochemical; details: 10 point dose response, 10 µM ATP
T2 construct: purchased Reaction Biology Corporation
Method: as §6, §7, §8, §9, §10, §11, §12

FYN = molecular target: T3, FYN (Homo sapiens, UniProt P06241); assay: as above; format: biochemical; details: 10 point dose response, 10 µM ATP
T3 construct: purchased Reaction Biology Corporation
Method: as §6, §7, §8, §9, §10, §11, §12

[16] = 50% growth inhibition, five dose, average of 2 experiments
[17] = cytotoxic concentration, 50% reduction in measured protein, read-out: LC50 (the source's name)

T3 sequence (P06241 whole entry): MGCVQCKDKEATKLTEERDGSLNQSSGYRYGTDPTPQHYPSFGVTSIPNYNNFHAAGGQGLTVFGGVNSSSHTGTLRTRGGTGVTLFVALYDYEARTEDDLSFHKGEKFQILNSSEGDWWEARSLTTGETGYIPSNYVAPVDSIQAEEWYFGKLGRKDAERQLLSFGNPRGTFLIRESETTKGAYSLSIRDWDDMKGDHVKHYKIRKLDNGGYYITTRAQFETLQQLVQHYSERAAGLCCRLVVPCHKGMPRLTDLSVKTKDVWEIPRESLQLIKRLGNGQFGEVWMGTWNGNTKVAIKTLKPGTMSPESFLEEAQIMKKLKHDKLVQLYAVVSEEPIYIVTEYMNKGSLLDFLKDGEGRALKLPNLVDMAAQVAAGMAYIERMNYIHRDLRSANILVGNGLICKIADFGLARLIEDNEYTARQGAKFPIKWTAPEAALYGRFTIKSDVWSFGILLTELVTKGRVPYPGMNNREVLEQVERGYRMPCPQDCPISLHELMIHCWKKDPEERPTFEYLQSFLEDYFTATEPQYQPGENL
T1 sequence (P08631 whole entry): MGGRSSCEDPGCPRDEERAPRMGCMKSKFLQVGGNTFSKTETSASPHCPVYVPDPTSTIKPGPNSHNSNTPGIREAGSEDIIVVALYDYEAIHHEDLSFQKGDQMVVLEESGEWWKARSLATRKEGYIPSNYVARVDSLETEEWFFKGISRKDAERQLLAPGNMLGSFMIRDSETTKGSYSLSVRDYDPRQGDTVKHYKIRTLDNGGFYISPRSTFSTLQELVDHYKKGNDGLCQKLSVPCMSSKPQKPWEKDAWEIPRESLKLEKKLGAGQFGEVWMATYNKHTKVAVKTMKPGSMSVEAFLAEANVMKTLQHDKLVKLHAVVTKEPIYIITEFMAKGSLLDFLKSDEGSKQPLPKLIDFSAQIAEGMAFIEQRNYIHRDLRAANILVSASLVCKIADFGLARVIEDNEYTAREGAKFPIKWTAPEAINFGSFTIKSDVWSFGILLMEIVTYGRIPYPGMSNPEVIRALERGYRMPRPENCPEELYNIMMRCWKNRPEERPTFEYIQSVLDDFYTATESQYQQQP
T2 sequence (P08069 31-1367): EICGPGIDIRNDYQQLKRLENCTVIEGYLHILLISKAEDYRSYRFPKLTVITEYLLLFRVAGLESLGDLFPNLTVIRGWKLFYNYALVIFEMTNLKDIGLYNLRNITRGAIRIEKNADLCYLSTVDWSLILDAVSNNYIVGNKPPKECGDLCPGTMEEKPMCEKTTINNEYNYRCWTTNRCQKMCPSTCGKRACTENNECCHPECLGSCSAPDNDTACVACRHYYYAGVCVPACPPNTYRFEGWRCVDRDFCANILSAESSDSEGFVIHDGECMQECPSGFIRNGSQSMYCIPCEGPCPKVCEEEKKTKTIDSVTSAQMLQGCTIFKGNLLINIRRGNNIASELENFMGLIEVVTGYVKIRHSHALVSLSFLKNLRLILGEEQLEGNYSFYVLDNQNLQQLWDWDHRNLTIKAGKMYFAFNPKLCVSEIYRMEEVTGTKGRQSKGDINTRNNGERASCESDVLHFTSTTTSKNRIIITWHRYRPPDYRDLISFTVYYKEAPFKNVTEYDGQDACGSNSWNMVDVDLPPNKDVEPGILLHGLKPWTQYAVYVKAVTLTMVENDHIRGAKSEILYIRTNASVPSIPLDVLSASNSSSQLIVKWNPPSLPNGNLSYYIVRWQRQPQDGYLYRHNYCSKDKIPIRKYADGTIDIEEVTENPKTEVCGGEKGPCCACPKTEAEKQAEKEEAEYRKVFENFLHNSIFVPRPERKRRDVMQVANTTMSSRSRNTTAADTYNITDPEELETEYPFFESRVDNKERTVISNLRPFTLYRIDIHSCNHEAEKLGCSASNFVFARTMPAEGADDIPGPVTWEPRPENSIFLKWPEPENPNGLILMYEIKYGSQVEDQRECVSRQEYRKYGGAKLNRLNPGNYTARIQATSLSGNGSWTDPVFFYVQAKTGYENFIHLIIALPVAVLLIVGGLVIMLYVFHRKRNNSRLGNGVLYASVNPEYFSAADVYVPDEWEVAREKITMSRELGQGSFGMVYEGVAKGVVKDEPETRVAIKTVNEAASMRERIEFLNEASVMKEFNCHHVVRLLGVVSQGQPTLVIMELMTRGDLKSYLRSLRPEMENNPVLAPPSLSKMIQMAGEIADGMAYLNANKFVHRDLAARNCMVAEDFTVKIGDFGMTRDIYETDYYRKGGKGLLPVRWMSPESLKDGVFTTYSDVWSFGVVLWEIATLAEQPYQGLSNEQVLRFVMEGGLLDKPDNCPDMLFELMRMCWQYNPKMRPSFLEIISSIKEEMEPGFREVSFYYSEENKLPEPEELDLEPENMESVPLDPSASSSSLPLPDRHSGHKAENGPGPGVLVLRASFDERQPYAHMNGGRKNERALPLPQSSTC

Compound: Nc1ncnc2c1c(-c1ccc(Oc3ccccc3)cc1)nn2C[C@@H]1SSC[C@@H]1O [SAB298, (3S, 4S)-3-((4-amino-3-(4-phenoxyphenyl)-1H-pyrazolo[3,4-d]pyrimidin-1-yl)methyl)-1,2-dithiolan-4-ol]
- IC50 [1]: 21 to 550 nM
- GI50 [2, 16]: 170 nM
- CC50 [2, 17]: 4560 nM
- GI50 [3, 16]: 61 nM
- CC50 [3, 17]: > 100000 nM
- GI50 [4, 16]: 32 nM
- CC50 [4, 17]: > 100000 nM
- GI50 [5, 16]: 103 nM
- CC50 [5, 17]: 618 nM
- GI50 (SR leukemia cell line; [16]): 38 nM
- CC50 (SR leukemia cell line; [17]): > 100000 nM
- GI50 (HOP-62 NSCLC cell line; [16]): 227 nM
- CC50 (HOP-62 NSCLC cell line; [17]): 23600 nM
- GI50 [6, 16]: 38 nM
- CC50 [6, 17]: > 100000 nM
- GI50 [7, 16]: 181 nM
- CC50 [7, 17]: 79300 nM
- GI50 [8, 16]: 374 nM
- CC50 [8, 17]: 93500 nM
- GI50 [9, 16]: 212 nM
- CC50 [9, 17]: 19400 nM
- GI50 [10, 16]: 182 nM
- CC50 [10, 17]: 872 nM
- GI50 [11, 16]: 138 nM
- CC50 [11, 17]: 53000 nM
- GI50 [12, 16]: 251 nM
- CC50 [12, 17]: 2680 nM
- GI50 [13, 16]: 134 nM
- CC50 [13, 17]: 6520 nM
- GI50 [14, 16]: 550 nM
- CC50 [14, 17]: > 100000 nM
- GI50 (M14 melanoma cell line; [16]): 21 nM
- CC50 (M14 melanoma cell line; [17]): 105 nM
- GI50 (NCI-1460 NSCLC cell line; [16]): 29 nM
- CC50 (NCI-1460 NSCLC cell line; [17]): 551 nM
- GI50 [15, 16]: 88 nM
- CC50 [15, 17]: > 100000 nM
- IC50 (YUSIT1 melanoma cells; Homo sapiens, YUSIT1, BRAF V600K, cell viability, 72 hrs): 238 nM
- AUC1 (YUSIT1 melanoma cells; YUSIT1, growth response): 166
- AUC2 (YUSIT1 melanoma cells; YUSIT1, growth response): 32
- IC50 (HCK): 16.3 nM
- IC50 (IGF1R): > 10000 nM
- IC50 (FYN): 21.7 nM
